From article PMC9090415, “Discovery of small molecule inhibitors of Plasmodium falciparum apicoplast DNA polymerase” (Journal of Enzyme Inhibition and Medicinal Chemistry, 2022)

Biological target: P. falciparum apicoplast DNA polymerase (Pf-apPOL) (Plasmodium falciparum, UniProt Q8ILY1)
Experiment: Fluorescence-based high-throughput DNA polymerase assay (molecular beacon), primary screen and dose-response;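 for % inhibition ApPOL 90': test concentration in µM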;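 for % inhibition apPOL 180': test concentration in µM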
Type: biochemical
Conditions: for DNA Pol: 90 min, 10 µM
Procedure, shortened: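 Single-point screening used 10 µM compound with 20 nM polymerase, 20 nM hairpin substrate and 6 µM dNTPs for 90 min at 25 °C. Confirmatory titrations (2.5–80 µM) followed fluorescence at three times, and IC50 was derived from a fit including a cooperativity term n.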

Chain of P. falciparum apicoplast DNA polymerase (Pf-apPOL) (Q8ILY1 entry or part of it): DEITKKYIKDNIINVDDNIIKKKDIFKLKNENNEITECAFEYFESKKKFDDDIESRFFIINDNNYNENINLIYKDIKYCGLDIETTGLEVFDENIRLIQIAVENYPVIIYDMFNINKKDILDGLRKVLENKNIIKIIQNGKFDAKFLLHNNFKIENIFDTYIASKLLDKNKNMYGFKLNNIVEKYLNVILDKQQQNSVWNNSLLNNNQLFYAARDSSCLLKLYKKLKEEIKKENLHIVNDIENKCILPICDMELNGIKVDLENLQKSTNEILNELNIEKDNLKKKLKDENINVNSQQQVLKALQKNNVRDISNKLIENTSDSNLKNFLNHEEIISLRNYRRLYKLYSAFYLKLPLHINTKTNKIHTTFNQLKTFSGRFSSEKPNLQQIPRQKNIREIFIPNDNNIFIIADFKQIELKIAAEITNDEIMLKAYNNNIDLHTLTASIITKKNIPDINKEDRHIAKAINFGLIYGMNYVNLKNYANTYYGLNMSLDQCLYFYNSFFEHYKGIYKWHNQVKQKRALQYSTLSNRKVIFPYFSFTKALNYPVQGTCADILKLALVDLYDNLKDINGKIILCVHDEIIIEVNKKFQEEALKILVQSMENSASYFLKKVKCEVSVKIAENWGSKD

`CCOc1nc2cccc(C(=O)OC(C)OC(=O)OC3CCCCC3)c2n1Cc1ccc(-c2ccccc2-c2nn[nH]n2)cc1` (stereo not drawn) [Molecule 94, CCOc1nc2c(n1Cc1ccc(cc1)c1ccccc1c1n[nH]nn1)c(ccc2)C(=O)OC(OC(=O)OC1CCCCC1)C] was tested, and the “DNA Pol” value ('DNA Pol' of the 186 hits list (screen value)) was 88, the “% inhibition Apo pol 10'” value (DRC-1, conc 2.5) was 6.803% and the “% inhibition Apo pol 10'” value (DRC-1, conc 5) was 16.1591%. The “% inhibition Apo pol 10'” value (DRC-1, conc 10) was 73.0339%, the “% inhibition Apo pol 10'” value (DRC-1, conc 20) was 91.1% and the “% inhibition Apo pol 10'” value (DRC-1, conc 40) was 96.7244%. The “% inhibition Apo pol 10'” value (DRC-1, conc 80) was 98.4846%, the “% inhibition Apol 90'” value (DRC-1, 90', conc 2.5) was 4.826% and the “% inhibition Apol 90'” value (DRC-1, 90', conc 5) was 16.7075%. For the same molecule, the “% inhibition Apol 90'” value (DRC-1, 90', conc 10) was 71.8878%, the “% inhibition Apol 90'” value (DRC-1, 90', conc 20) was 89.9299% and the “% inhibition Apol 90'” value (DRC-1, 90', conc 40) was 93.9408%. The “% inhibition Apol 90'” value (DRC-1, 90', conc 80) was 94.456%, the “% inhibition apPOL 180'” value (DRC-1, 180', conc 2.5) was 1.0757% and the “% inhibition apPOL 180'” value (DRC-1, 180', conc 5) was 11.5491%. The “% inhibition apPOL 180'” value (DRC-1, 180', conc 10) was 64.6519%, the “% inhibition apPOL 180'” value (DRC-1, 180', conc 20) was 87.4687% and the “% inhibition apPOL 180'” value (DRC-1, 180', conc 40) was 92.7393%. For the same molecule, the “% inhibition apPOL 180'” value (DRC-1, 180', conc 80) was 93.1007%, the “% inhibition Apo pol 5'” value (DRC-2, conc 2.5) was 8% and the “% inhibition Apo pol 5'” value (DRC-2, conc 5) was 14%. The “% inhibition Apo pol 5'” value (DRC-2, conc 10) was 46%, the “% inhibition Apo pol 5'” value (DRC-2, conc 20) was 55% and the “% inhibition Apo pol 5'” value (DRC-2, conc 40) was 61%. For the same molecule, the “% inhibition Apo pol 5'” value (DRC-2, conc 80) was 61%, the “% inhibition Apo pol 5'” value (DRC-2, concentration 5) was 14% and the “% inhibition Apo pol 5'” value (DRC-2, concentration 40) was 61%. The “% inhibition Apo pol 5'” value (DRC-2, concentration 80) was 61%, the “% inhibition Apol 40'” value (DRC-2, 40', conc 2.5) was 11% and the “% inhibition Apol 40'” value (DRC-2, 40', conc 5) was 19%. The “% inhibition Apol 40'” value (DRC-2, 40', conc 10) was 59%, the “% inhibition Apol 40'” value (DRC-2, 40', conc 20) was 71% and the “% inhibition Apol 40'” value (DRC-2, 40', conc 40) was 74%. For the same molecule, the “% inhibition Apol 40'” value (DRC-2, 40', conc 80) was 74%, the “% inhibition Apol 40'” value (DRC-2, 40', concentration 5) was 19% and the “% inhibition Apol 40'” value (DRC-2, 40', concentration 10) was 59%. The “% inhibition Apol 40'” value (DRC-2, 40', concentration 40) was 74%, the “% inhibition Apol 40'” value (DRC-2, 40', concentration 80) was 74% and the “% inhibition ApPOL 90'” value (DRC-2, 90', conc 2.5) was 9%. For the same molecule, the “% inhibition ApPOL 90'” value (DRC-2, 90', conc 5) was 19%, the “% inhibition ApPOL 90'” value (DRC-2, 90', conc 10) was 59% and the “% inhibition ApPOL 90'” value (DRC-2, 90', conc 20) was 73%. For the same molecule, the “% inhibition ApPOL 90'” value (DRC-2, 90', conc 40) was 77%, the “% inhibition ApPOL 90'” value (DRC-2, 90', conc 80) was 77% and the “% inhibition ApPOL 90'” value (DRC-2, 90', concentration 5) was 19%. For the same molecule, the “% inhibition ApPOL 90'” value (DRC-2, 90', concentration 10) was 59%, the “% inhibition ApPOL 90'” value (DRC-2, 90', concentration 40) was 77% and the “% inhibition ApPOL 90'” value (DRC-2, 90', concentration 80) was 77%. For the same molecule, the “% inhibition apPOL 180'” value (DRC-2, 180', conc 2.5) was 4.45%, the “% inhibition apPOL 180'” value (DRC-2, 180', conc 5) was 14% and the “% inhibition apPOL 180'” value (DRC-2, 180', conc 10) was 53%. For the same molecule, the “% inhibition apPOL 180'” value (DRC-2, 180', conc 20) was 69%, the “% inhibition apPOL 180'” value (DRC-2, 180', conc 40) was 75% and the “% inhibition apPOL 180'” value (DRC-2, 180', conc 80) was 75%. The “% inhibition apPOL 180'” value (DRC-2, 180', concentration 5) was 14%, the “% inhibition apPOL 180'” value (DRC-2, 180', concentration 40) was 75% and the “% inhibition apPOL 180'” value (DRC-2, 180', concentration 80) was 75%. The “DNA Pol” value (primary screen value, "DNA Pol") was 88.
In the case of `OC(C#Cc1ccccc1)c1ccco1` (stereo not drawn) [Molecule 95, OC(c1ccco1)C#Cc1ccccc1], the “% inhibition Apo pol 10'” value (DRC-1, concentration 2.5) is reported as 31.3113%, the “% inhibition Apo pol 10'” value (DRC-1, concentration 5) is reported as 57.2957% and the “% inhibition Apo pol 10'” value (DRC-1, concentration 10) is reported as 77.3144%. The “% inhibition Apo pol 10'” value (DRC-1, concentration 20) was 80.9257%, the “% inhibition Apo pol 10'” value (DRC-1, concentration 40) was 79.5386% and the “% inhibition Apo pol 10'” value (DRC-1, concentration 80) was 69.6909%. The “% inhibition Apol 90'” value (DRC-1, 90', concentration 2.5) was 17.4442%, the “% inhibition Apol 90'” value (DRC-1, 90', concentration 5) was 42.0165% and the “% inhibition Apol 90'” value (DRC-1, 90', concentration 10) was 68.6484%. The “% inhibition Apol 90'” value (DRC-1, 90', concentration 20) was 80.4558%, the “% inhibition Apol 90'” value (DRC-1, 90', concentration 40) was 83.9315% and the “% inhibition Apol 90'” value (DRC-1, 90', concentration 80) was 80.7801%. The “% inhibition apPOL 180'” value (DRC-1, 180', concentration 2.5) was 5.809%, the “% inhibition apPOL 180'” value (DRC-1, 180', concentration 5) was 25.3082% and the “% inhibition apPOL 180'” value (DRC-1, 180', concentration 10) was 55.1933%. The “% inhibition apPOL 180'” value (DRC-1, 180', concentration 20) was 73.4768%, the “% inhibition apPOL 180'” value (DRC-1, 180', concentration 40) was 83.0192% and the “% inhibition apPOL 180'” value (DRC-1, 180', concentration 80) was 83.0007%. The “% inhibition Apol 40'” value (DRC-2, 40', concentration 10 (unit not given)) was 60%, the “% inhibition Apol 40'” value (DRC-2, 40', concentration 20 (unit not given)) was 62% and the “% inhibition ApPOL 90'” value (DRC-2, 90', concentration 10 (unit not given)) was 62%. The “% inhibition ApPOL 90'” value (DRC-2, 90', concentration 20 (unit not given)) was 67%, the “% inhibition ApPOL 90'” value (DRC-2, 90', concentration 40 (unit not given)) was 66% and the “% inhibition ApPOL 90'” value (DRC-2, 90', concentration 80 (unit not given)) was 60%. For the same molecule, the “% inhibition apPOL 180'” value (DRC-2, 180', concentration 20 (unit not given)) was 66%, the “% inhibition apPOL 180'” value (DRC-2, 180', concentration 80 (unit not given)) was 67% and the “% inhibition Apo pol 5'” value (DRC-2, concentration 2.5) was 14%. For the same molecule, the “% inhibition Apo pol 5'” value (DRC-2, concentration 5) was 32%, the “% inhibition Apo pol 5'” value (DRC-2, concentration 10) was 39% and the “% inhibition Apo pol 5'” value (DRC-2, concentration 20) was 34%. The “% inhibition Apo pol 5'” value (DRC-2, concentration 40) was 22%, the “% inhibition Apo pol 5'” value (DRC-2, concentration 80) was -5% and the “% inhibition Apol 40'” value (DRC-2, 40', concentration 2.5) was 15%. The “% inhibition Apol 40'” value (DRC-2, 40', concentration 5) was 44%, the “% inhibition Apol 40'” value (DRC-2, 40', concentration 10) was 60% and the “% inhibition Apol 40'” value (DRC-2, 40', concentration 20) was 62%. For the same molecule, the “% inhibition Apol 40'” value (DRC-2, 40', concentration 40) was 59%, the “% inhibition Apol 40'” value (DRC-2, 40', concentration 80) was 48% and the “% inhibition ApPOL 90'” value (DRC-2, 90', concentration 2.5) was 12%. For the same molecule, the “% inhibition ApPOL 90'” value (DRC-2, 90', concentration 5) was 41%, the “% inhibition ApPOL 90'” value (DRC-2, 90', concentration 10) was 62% and the “% inhibition ApPOL 90'” value (DRC-2, 90', concentration 20) was 67%. For the same molecule, the “% inhibition ApPOL 90'” value (DRC-2, 90', concentration 40) was 66%, the “% inhibition ApPOL 90'” value (DRC-2, 90', concentration 80) was 60% and the “% inhibition apPOL 180'” value (DRC-2, 180', concentration 2.5) was 4.25%. For the same molecule, the “% inhibition apPOL 180'” value (DRC-2, 180', concentration 5) was 30%, the “% inhibition apPOL 180'” value (DRC-2, 180', concentration 10) was 58% and the “% inhibition apPOL 180'” value (DRC-2, 180', concentration 20) was 66%. For the same molecule, the “% inhibition apPOL 180'” value (DRC-2, 180', concentration 40) was 71%, the “% inhibition apPOL 180'” value (DRC-2, 180', concentration 80) was 67% and the “DNA Pol” value (primary screen value of the 186 hits, unit not given) was 70. For the same molecule, the “DNA Pol” value (primary screen value, head "DNA Pol", unit not given) was 70.
`Cc1ccc(C(=O)/C=C/C=C/C=C/N(C)C)o1` [Molecule 96] showed an IC50 (supplemental file 2, sheet IC50 nontoxic compounds, Pf-apPOL) of 4.93 µM.
